In US10058545B2, “Method of treating pulmonary arterial hypertension” (Cipla Limited, priority 2016, dated 2018):

Assays:
[1] = test system: rats with monocrotaline induced pulmonary arterial hypertension; experiment: Monocrotaline rat PAH efficacy model: terminal hemodynamics, heart/lung weights; details: for Body Weight / HR / HW/BW / Heart Weight / LV Weight / Lung Weight / MAP / Mean PAP / RV Weight / RV/BW / RV/LV + S (Fulton's Index) / Systolic PAP: Day 28 after MCT, Mean ± SEM
Protocol: The studies were conducted for hemodynamic evaluation of cinitpride in anesthetized sprague dawley rats treated with monocrotaline (“MCT”) to induce pulmonary arterial hypertension. Sildenafil was used as an internal control to compare the effects of cinitapride.
The effects of cinitapride were evaluated in rats with monocrotaline induced pulmonary arterial hypertension using sildenafil as standard care treatment. Male Sprague-Dawley rats were orally administered vehicle cinitapride (0.3 or 0.9 mg/kg total daily dose, divided into a BID regimen given every day for 28 days starting on Day 1), or sildenafil (30 mg/kg, administered twice daily) (n=10 in each group). Rats received a single injection of monocrotaline (60 mg/kg, s.c.) on Study Day 1. On the twenty-eighth day following monocrotaline dosing, the rats were anesthetized with ketamine/xylazine for terminal monitoring of pulmonary and systemic arterial pressures along with heart rate.
Vehicle (0.5% Methylcellulose+0.2% Tween 80 in deionized water, Cinitapride (0.3 or 0.9 mg/kg total daily dose; Sildenafil (30 mg/kg, administered twice daily)
(§1) Male Sprague-Dawley rats in groups 2 to 5 were administered […] of body weight of Monocrotaline in DMSO subcutaneously to induce PAH on day 1. The DMSO group (Group 1) received a single dose of DMSO subcutaneously on day 1. The vehicle group received 5 ml of vehicle every morning. The cinitapride as well as sildenafil groups were orally administered cinitapride (0.3 or 0.9 mg/kg total daily dose, divided into a BID regimen given every day for 28 days starting on Day 1), or sildenafil (30 mg/kg, administered twice daily). On the twenty-eighth day after monocrotaline dosing, the rats were anesthetized with ketamine/xylazine for terminal monitoring of pulmonary and systemic arterial pressures along with heart rate.

[2] = test system: pulmonary arterioles of rats with monocrotaline induced pulmonary arterial hypertension; experiment: Monocrotaline rat PAH model: lung histopathology (smooth muscle hypertrophy, muscularization of pulmonary arterioles); format: in vivo, Sprague-Dawley rats; details: for mean hypertrophy score (smooth muscle hypertrophy of small arterioles): score 0 (normal) to 4 (marked), monocrotaline+vehicle 2.7
Protocol: as §1
Later the animals were sacrificed and histopathological evaluation was performed to assess pulmonary arterioles for smooth muscle hypertrophy & muscularization of pulmonary arterioles.
The elastin/eosin stained lung section were examined microscopically and histopathological findings were recorded as smooth muscle hypertrophy of small arterioles and muscularization of pulmonary arterioles. The finding were recorded as 0 (normal), 1 (minimal), 2 (mild), 3 (moderate) or 4 (marked). Scoring smooth muscle hypertrophy in small pulmonary arterioles was based on the thickness of muscular wall & extent of finding (apparent no. of arterioles affected).

[3] = Cinitapride 0.3 mg/kg per day bid, oral
[4] = Cinitapride 0.9 mg/kg per day bid, oral
[5] = Sildenafil 60 mg/kg per day bid, oral

## CCOc1cc(N)c([N+](=O)[O-])cc1C(=O)NC1CCN(CC2CC=CCC2)CC1 (centres unmarked) [Cinitapride]
[1]; 0.9 mg/kg/day cinitapride, after 28 days
  systolic pulmonary arterial pressure compared to the vehicle group: reduction in systolic pulmonary arterial pressure
[1]; [3]
  Body Weight: 0.32 ± 0.02 kg
  HR: 299 ± 17 bpm
  HW/BW: 3.71 ± 0.20
  Heart Weight: 1.17 ± 0.05 g
  LV Weight: 0.68 ± 0.04 g
  Lung Weight: 2.36 ± 0.16 g
  MAP: 77 ± 8 mmHg
  Mean PAP: 43 ± 5 mmHg
  RV Weight: 0.35 ± 0.02 g
  RV/BW: 1.14 ± 0.10
  RV/LV + S (Fulton's Index): 0.53 ± 0.04
  Systolic PAP: 55 ± 8 mmHg
[1]; [4]
  Body Weight: 0.32 ± 0.02 kg
  HR: 295 ± 9 bpm
  HW/BW: 3.52 ± 0.16
  Heart Weight: 1.10 ± 0.05 g
  LV Weight: 0.70 ± 0.03 g
  Lung Weight: 2.30 ± 0.20 g
  MAP: 76 ± 2 mmHg
  Mean PAP: 37 ± 3 mmHg
  RV Weight: 0.31 ± 0.03 g
  RV/BW: 1.01 ± 0.11
  RV/LV + S (Fulton's Index): 0.45 ± 0.04
  Systolic PAP: 45 ± 4 mmHg
[1]; cinitapride 0.3 mg/kg/day
  effect on right ventricular hypertrophy (RV/LV+S, Fulton's Index) compared to vehicle: −10%
[1]; cinitapride 0.9 mg/kg/day
  effect on right ventricular hypertrophy (RV/LV+S, Fulton's Index) compared to vehicle: −25%
[1]; cinitapride 0.9 mg/kg/day given BID, oral
  efficacy at reducing monocrotaline-induced pulmonary hypertension (overall mortality, pulmonary hemodynamics, right ventricular hypertrophy) versus sildenafil: superior to the positive control
[1]; cinitapride highest dose, p<0.05
  decrease in hypertrophy, RV (wt) corrected by body weight: 33%
[1]; rat, in vivo
  activity in controlling or reducing PAH relative to Sildenafil: comparable
[1]; rats treated with cinitapride
  heart rate or mean arterial pressure compared to vehicle: No substantive differences
[2]; 0.45 mg/kg cinitapride twice daily following MCT, vehicle following MCT 52.1%
  completely muscularized arterioles, group mean percentage: 38.2%
[2]; cinitapride 0.15 mg/kg after monocrotaline induction
  vascular smooth muscle hypertrophy compared to control group (FIG. 4): mild vascular smooth muscle hypertrophy
[2]; cinitapride 0.15 mg/kg and 0.45 mg/kg twice daily following Monocrotaline
  presence of smooth muscle hypertrophy in small arterioles: substantially decreased
[2]; cinitapride 0.45 mg/kg after monocrotaline induction
  vascular smooth muscle hypertrophy compared to control group (FIG. 5): mild vascular smooth muscle hypertrophy
[2]; monocrotaline+cinitapride 0.15 bid
  mean hypertrophy score (smooth muscle hypertrophy of small arterioles): 1.9
[2]; monocrotaline+cinitapride 0.45 bid
  mean hypertrophy score (smooth muscle hypertrophy of small arterioles): 2.1

## CCCc1nn(C)c2c(=O)[nH]c(-c3cc(S(=O)(=O)N4CCN(C)CC4)ccc3OCC)nc12 [Sildenafil]
[1]; [5]
  Body Weight: 0.32 ± 0.01 kg
  HR: 278 ± 21 bpm
  HW/BW: 3.89 ± 0.17
  Heart Weight: 1.24 ± 0.02 g
  LV Weight: 0.74 ± 0.02 g
  Lung Weight: 2.36 ± 0.13 g
  MAP: 69 ± 5 mmHg
  Mean PAP: 38 ± 6 mmHg
  RV Weight: 0.38 ± 0.02 g
  RV/BW: 1.19 ± 0.09
  RV/LV + S (Fulton's Index): 0.51 ± 0.03
  Systolic PAP: 46 ± 7 mmHg
[1]; sildenafil
  hypertrophic index (RV wt corrected by body weight): decrease
